In US8404858B2, “Agent for regeneration and/or protection of nerves” (Ono Pharmaceutical Co., Ltd., priority 2005, dated 2013):

Assays:
[1] = target: T1, rat EP3 receptor (Rattus norvegicus, UniProt P34980); assay: Measurement of EP3 agonist activity (intracellular calcium concentration real time imaging, Ca2+ assay); type: cell-based; conditions: rEP3-CHO cell, maximum = PGE2 (100 nmol/L)
T1 construct: expressed in transfected cells; host or cells: CHO cells (rEP3-CHO)
T1 sequence (P34980 1-365): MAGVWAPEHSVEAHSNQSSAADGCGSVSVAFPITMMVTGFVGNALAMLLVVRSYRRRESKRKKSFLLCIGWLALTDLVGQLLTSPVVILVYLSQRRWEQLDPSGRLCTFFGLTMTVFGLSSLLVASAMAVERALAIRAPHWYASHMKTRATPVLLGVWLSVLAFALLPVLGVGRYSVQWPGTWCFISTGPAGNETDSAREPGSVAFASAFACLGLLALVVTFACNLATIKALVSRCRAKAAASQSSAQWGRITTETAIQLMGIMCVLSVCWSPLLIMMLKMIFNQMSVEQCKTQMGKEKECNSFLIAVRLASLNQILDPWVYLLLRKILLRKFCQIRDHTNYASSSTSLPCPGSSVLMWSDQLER
Experimental: (1-2) Measurement of EP3 Agonist Activity (Intracellular Calcium Concentration Real Time Imaging (Ca^2+ Assay))
A rat EP3 receptor forced expression cell (rEP3-CHO cell) was incubated in an incubator (5% CO2) of 37° C. using Minimum Essential Medium Eagle (Sigma, M4526) to which 10% fetal bovine serum (FBS, JRH) and 1/100 of total volume of Penicillin Streptomycin Glutamine (GIBCO, 10378-016) had been added. The cells which reached confluent were exfoliated using trypsin and suspended in a medium (MEM medium containing 10% FBS) to a density of 1.0×10^5 cells per ml. […]
After the incubation, the culture fluid was removed from each well of the plate and a Fura2 loading buffer (10% FBS-containing MEM medium supplemented with Fura2-AM (5 μmol/L), HEPES (10 mmol/L), probenecid (2.5 mmol/L) and indometacin (20 μmol/L)) was added thereto, followed by incubating in an incubator (5% CO2) of 37° C. […] Measurement of the fluorescence intensity was continuously carried out for 3 minutes after addition of the compound.
Activity intensity of each compound was compared by calculating their EC50 values. The EC50 value was calculated by regarding mean of the changed amount of calcium concentration when PGE2 (100 nmol/L) was added instead of each compound as the maximum changed amount, and defining the value which gives half of the changed amount as the concentration of each compound. […]

[2] = target: T2, rat EP2 receptor (Rattus norvegicus, UniProt Q62928); assay: Measurement of EP2 agonist activity (intracellular cyclic AMP concentration, cAMP assay); type: cell-based; conditions: rEP2-CHO cell, maximum = PGE2 (1 μmol/l)
T2 construct: expressed in transfected cells; host or cells: CHO cells (rEP2-CHO)
Experimental: (1-1) Measurement of EP2 Agonist Activity (Measurement of Intracellular Cyclic AMP (cAMP) Concentration (cAMP Assay))
A rat EP2 receptor forced expression cell (rEP2-CHO cell) was incubated in an incubator (5% CO2) of 37° C. using Minimum Essential Medium Eagle (Sigma, M4526) to which 10% fetal bovine serum (FBS, JRH) and 1/100 total volume of Penicillin Streptomycin Glutamine (GIBCO, 10378-016) had been added. The cells which reached confluent were exfoliated using trypsin and suspended in a medium (MEM medium containing 10% FBS) to a density of 2.0×10^5 cells per ml. The thus prepared suspension was seeded into a 24 well plate to be 1.0×10^5 cells per well portions and incubated for 48 hours. […]
The frozen sample was thawed and transferred to a micro centrifugation tube to be centrifuged (15,000 rpm, 4° C., 3 minutes). […] Using the upper layer as a sample, cAMP concentration was measured by a cAMP EIA system (cAMP Enzyme Immunoassay System, Amersham Biosciences).
Activity strengths of respective compounds were compared by calculating their EC50 values. The EC50 value was calculated by regarding changed amount of the cAMP concentration when PGE2 (1 μmol/l) was added instead of each compound as the maximum changed amount, and defining the value which gives half of the changed amount as the concentration of each compound.

[3] = system: rat; assay: Measurement of the cauda equina blood flow and the blood pressure; type: in vivo; conditions: urethane-anesthetized rat, continuous infusion through caudal vein for 30 minutes
Experimental: (3) The Measurement of the Cauda Equina Blood Flow and the Blood Pressure
1.5 g/kg of urethane was administered intraperitoneally to the rat to be anesthetized, and the catheter (for measurement of blood pressure and ventricular rate) was placed in left carotid artery in supine position. The rat was reversed to prone position and the lumbar part was incised in the median line. The laminectomy was given to the fifth lumbar vertebra and the spinal cord (cauda equina) was exposed. The cauda equina blood flow was measured by the laser-Doppler flowmetry (OMEGAFLD FLO-NI and ADVANCE LASER FLOWMETER ALF21N, OMEGA WAVE Inc.) through a noncontact probe (ST-N type, OMEGA WAVE Inc.) and recorded with LINEARCORDER (Graphtech). The systemic blood pressure and the ventricular rate were measured from a left carotid artery with amplifier for the pressure measurement (GOULD) through a pressure transducer and recorded with LINEARCORDER (Graphtech). After confirming each parameter of blood pressure, ventricular rate and blood flow was stabilized, the test compound was administrated by continuous infusion through the winged needle placed in caudal vein for 30 minutes. It observed until 30 minutes after the administration and the increase rate of the cauda equina blood flow was calculated.
The increase rate of the cauda equina blood flow (%)=(B−A)/A×100 […]

[4] = system: cauda equina nerve; assay: Measurement of cauda equina nerve repair acceleration activity (rat cauda equina nerve compression gait disturbance model); type: in vivo; conditions: intravenous continuous administration 2 hours×twice/day, 2 weeks, in comparison with the physiological saline administration group
Experimental: (2) Measurement of Cauda Equina Nerve Repair Acceleration Activity
A rat cauda equina nerve compression gait disturbance model was prepared by the method of Takenobu et al. (J. Neurosci. Methods, 104 (2), 191-198, 2002). Namely, a rat was anesthetized with pentobarbital sodium and, after shaving its dorsal region, fixed at abdominal position. After disinfection of the dorsal region with chlorhexidine gluconate (5% hibitane liquid; Sumitomo Pharmaceuticals), the waist was median-incised to expose the spinal column. After excision of the fifth lumbar gemmule, a silicon rubber of 1×4×1.25 mm (height×length×width) was inserted into the fourth lumbar and sixth lumbar spinal canals from a small hole on the vertebral arch bored by a mini drill. For the purpose of avoiding infections, benzylpenicillin potassium (Crystalline Penicillin G Potassium Meiji; Meiji Seika Kaisha, Ltd.) was added dropwise to the incised part and intramuscularly injected into the thigh parts. The muscle and skin of the incised part were stitched with a surgical suture, and Iodine Tincture was applied to the stitched part. Animals of the sham operation group were prepared in accordance with the aforementioned method, but the insertion of silicon rubber was not carried out. […]

T2 sequence (Q62928 whole entry): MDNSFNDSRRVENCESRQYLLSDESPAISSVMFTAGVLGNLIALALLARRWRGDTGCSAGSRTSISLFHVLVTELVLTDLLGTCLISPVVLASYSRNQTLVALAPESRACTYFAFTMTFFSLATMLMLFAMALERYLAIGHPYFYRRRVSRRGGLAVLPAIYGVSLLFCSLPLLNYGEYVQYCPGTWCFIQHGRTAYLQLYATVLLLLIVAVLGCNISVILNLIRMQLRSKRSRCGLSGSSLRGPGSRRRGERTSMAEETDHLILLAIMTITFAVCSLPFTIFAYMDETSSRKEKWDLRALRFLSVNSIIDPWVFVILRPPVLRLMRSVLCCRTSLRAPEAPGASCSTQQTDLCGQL

Row | EC50 [1] | EC50 [2] | SMILES | decrease of the blood pressure ([3]; left carotid artery) | increase rate of the cauda equina blood flow ([3]; observed until 30 minutes after) | appearance rate of regeneration nerve fascicles [4]
1 | 0.031 µM | 0.011 µM | C[C@@](O)(C/C=C/[C@H]1CCC(=O)[C@@H]1CCSc1nc(C(=O)O)cs1)CC1CCCCC1 [compound 17, 2-[(2-{(1R,2R)-2-[(1E,4S)-5-cyclohexyl-4-hydroxy-4-methyl-1-penten-1-yl]-5-oxocyclopentyl}ethyl)thio]-1,3-thiazole-4-carboxylic acid] | 5 mmHg | 33% | 
2 | 0.099 µM | 0.016 µM | O=C(O)c1csc(SCCN2C(=O)OC[C@@H]2/C=C/[C@@H](O)C2(CCCCF)CCC2)n1 [compound A, 2-{[2-((4S)-4-{(1E,3R)-3-[1-(4-fluorobutyl)cyclobutyl]-3-hydroxy-1-propenyl}-2-oxo-1,3-oxazolidin-3-yl)ethyl]sulfanyl}-1,3-thiazole-4-carboxylic acid] |  |  | significantly high appearance rate of regeneration nerve fascicles
